According to patent US20200022963A1, “PHARMACEUTICAL COMPOSITION COMPRISING BETAHISTINE” (Otolanum AG, priority 2017, published 2020):

Assay: Pharmacokinetic profile after single oral, intranasal and intravenous betahistine in beagle dogs, Example 5
Type: in vivo
Conditions: beagle, dog, in vivo; for concentration at 6 h / concentration at 24 h / concentration at 0 h / concentration at 5 min / concentration at 0.167 h / concentration at 0.333 h / concentration at 0.5 h / concentration at 1 h / concentration at 2 h / concentration at 3 h: Betahistine Plasma Concentration
Description: In this study, the pharmacokinetic profile of betahistine was evaluated after a single dose administration of betahistine in male and female beagle dogs (age 5-7 months; weight of 5-11 kg, within a range of 3 kg for each sex) for three routes of administration: oral, intranasal, and intravenous.
On Day 1 of the study, betahistine (BH) was delivered orally at a dose of 12 mg/kg, 24 mg/kg, or 48 mg/kg. Each treatment group comprised 8 animals (4 males and 4 females). For pharmacokinetic assessment, plasma samples were collected prior to dosing, and then at 5, 10, 20 and 30 min, 1, 2, 3, 6, 24 hours after dosing.
On Day 8 of the study, the animals that received oral BH at a dose of 12 mg/kg were administered the test betahistine composition intranasally at a dose of 40 mg betahistine dihydrochloride; the animals that received oral BH at a dose of 24 mg/kg were administered the test betahistine composition intranasally at a dose of 80 mg betahistine dihydrochloride; and the animals that received oral BH at a dose of 48 mg/kg were administered the test betahistine composition intranasally at a dose of 120 mg betahistine dihydrochloride. The test betahistine composition was delivered intranasally in a single dose via an Aptar nasal spray pump device at a total dose level of 40, 80 and 120 mg of betahistine dihydrochloride. Plasma samples were collected prior to dosing, and then at 5, 10, 20 and 30 min, 1, 2, 3, 6, 24 hours after dosing.
On Day 15 of the study, the animals that received oral BH at a dose of 12 mg/kg and the test betahistine composition intranasally at a dose of 40 mg betahistine dihydrochloride were administered a bolus intravenous injection of betahistine at a dose of 0.44 mg/kg. Plasma samples were collected prior to dosing, and then at 5, 10, 20 and 30 min, 1, 2, 3, 6, 24 hours after dosing.
Betahistine 13CD3 dihydrochloride and 2-pyridylacetic acid-D4 hydrochloride were used as respective internal standards. The calibration range for betahistine was 0.05-250 ng/mL and for 2-PAA 2.00-3000 ng/mL using a plasma sample volume of 0.50 mL.
For determination of betahistine, the method involved liquid-liquid extraction, for 2-PAA, the method involved protein precipitation. Plasma samples were prepared for betahistine by extraction under basic conditions with an organic solvent, then the organic phase was dried, reconstituted and transferred for LC/MS-MS analysis. […] Sample analysis was performed using reversed phase chromatography.

[1] = male, inhaled or intranasal, 5 mg/kg
[2] = male, inhaled or intranasal, 9.8 mg/kg
[3] = male, inhaled or intranasal, 15.8 mg/kg

What does the source list for CNCCc1ccccn1 [betahistine]?
concentration at 6 h (female, po, 24 mg/kg): 0.342 ng/mL; concentration at 24 h (female, po, 24 mg/kg): 0 ng/mL; AUC(0-6)/D (female, po, 48 mg/kg): 1.61 ± 0.528 hr*ng/mL/(mg/kg); AUC(0-inf) (female, po, 48 mg/kg): 69.2 ± 23.3 ng·h/mL; Cmax (female, po, 48 mg/kg): 33.5 ± 9.11 ng/mL; Cmax/D (female, po, 48 mg/kg): 0.697 ± 0.190 ng/mL/(mg/kg); Oral AUC/dose (female, po, 48 mg/kg): 1.61 (h · ng/mL)/(mg/kg); Tmax (female, po, 48 mg/kg): 60 min; half-life (female, po, 48 mg/kg): 35.9 min; AUC(0-t) (female, po, 48 mg/kg, AUC(0-6)): 77.5 ± 25.4 ng·h/mL; AUC(0-t) (female, po, 48 mg/kg, AUC(0-t)): 77.5 ± 25.4 ng·h/mL; concentration at 0 h (female, po, 48 mg/kg): 0 ng/mL; concentration at 5 min (female, po, 48 mg/kg): 9.87 ng/mL; concentration at 0.167 h (female, po, 48 mg/kg): 9.24 ng/mL; concentration at 0.333 h (female, po, 48 mg/kg): 11.5 ng/mL; concentration at 0.5 h (female, po, 48 mg/kg): 19.4 ng/mL; concentration at 1 h (female, po, 48 mg/kg): 32.8 ng/mL; concentration at 2 h (female, po, 48 mg/kg): 21.3 ng/mL; concentration at 3 h (female, po, 48 mg/kg): 10.1 ng/mL; concentration at 6 h (female, po, 48 mg/kg): 0.64 ng/mL; concentration at 24 h (female, po, 48 mg/kg): 0 ng/mL; AUC(0-inf) [1]: 131 ng·h/mL; AUC(0-t)/D [1]: 36.4 ± 24.4 hr*ng/mL/(mg/kg); Cmax [1]: 598 ng/mL; Cmax/D [1]: 120 ± 90.1 ng/mL/(mg/kg); Intranasal AUC/dose [1]: 36.4 (h · ng/mL)/(mg/kg); Tmax [1]: 10.2 min; AUC(0-t) (male, inhaled or intranasal, 5 mg/kg, AUC(0-6)): 178 ± 122 ng·h/mL; AUC(0-t) (male, inhaled or intranasal, 5 mg/kg, AUC(0-t)): 182 ± 122 ng·h/mL; AUC(0-inf) [2]: 202 ± 156 ng·h/mL; AUC(0-t)/D [2]: 17.5 ± 14.3 hr*ng/mL/(mg/kg); Cmax [2]: 735 ng/mL; Cmax/D [2]: 75.0 ± 56.9 ng/mL/(mg/kg); Intranasal AUC/dose [2]: 17.5 (h · ng/mL)/(mg/kg); Tmax [2]: 7.8 min; AUC(0-t) (male, inhaled or intranasal, 9.8 mg/kg, AUC(0-6)): 168 ± 140 ng·h/mL; AUC(0-t) (male, inhaled or intranasal, 9.8 mg/kg, AUC(0-t)): 172 ± 140 ng·h/mL; AUC(0-t)/D [3]: 12.6 ± 4.97 hr*ng/mL/(mg/kg); Cmax [3]: 765 ng/mL; Cmax/D [3]: 48.4 ± 23.7 ng/mL/(mg/kg); Intranasal AUC/dose [3]: 12.6 (h · ng/mL)/(mg/kg); Tmax [3]: 7.8 min; AUC(0-t) (male, inhaled or intranasal, 15.8 mg/kg, AUC(0-6)): 194 ± 79.8 ng·h/mL; AUC(0-t) (male, inhaled or intranasal, 15.8 mg/kg, AUC(0-t)): 199 ± 78.5 ng·h/mL; AUC(0-inf) (male, iv, 0.44 mg/kg): 18.4 ng·h/mL; AUC(0-t)/D (male, iv, 0.44 mg/kg): 44.3 ± 11.5 hr*ng/mL/(mg/kg); Cmax (male, iv, 0.44 mg/kg): 58.2 ng/mL; Cmax/D (male, iv, 0.44 mg/kg): 132 ng/mL/(mg/kg); Tmax (male, iv, 0.44 mg/kg): 4.8 min; Vd (male, iv, 0.44 mg/kg): 32.1 L/kg; clearance (male, iv, 0.44 mg/kg): 398 mL/min/kg; half-life (male, iv, 0.44 mg/kg): 55.8 min; AUC(0-t) (male, iv, 0.44 mg/kg, AUC(0-6)): 19.5 ng·h/mL; AUC(0-t) (male, iv, 0.44 mg/kg, AUC(0-t)): 19.5 ng·h/mL; concentration at 0 h (male, iv, 0.44 mg/kg): 0.11 ng/mL; concentration at 5 min (male, iv, 0.44 mg/kg): 58.2 ng/mL; concentration at 0.167 h (male, iv, 0.44 mg/kg): 29.1 ng/mL; concentration at 0.333 h (male, iv, 0.44 mg/kg): 8.06 ng/mL; concentration at 0.5 h (male, iv, 0.44 mg/kg): 5.57 ng/mL; concentration at 1 h (male, iv, 0.44 mg/kg): 0.349 ng/mL; concentration at 2 h (male, iv, 0.44 mg/kg): 0.993 ng/mL; concentration at 3 h (male, iv, 0.44 mg/kg): 0.081 ng/mL; concentration at 6 h (male, iv, 0.44 mg/kg): 1.05 ng/mL; concentration at 24 h (male, iv, 0.44 mg/kg): 0 ng/mL; AUC(0-6)/D (male, po, 12 mg/kg): 1.04 ± 0.168 hr*ng/mL/(mg/kg); AUC(0-inf) (male, po, 12 mg/kg): 13.3 ng·h/mL; Cmax (male, po, 12 mg/kg): 18.9 ± 9.99 ng/mL; Cmax/D (male, po, 12 mg/kg): 1.58 ± 0.833 ng/mL/(mg/kg); Oral AUC/dose (male, po, 12 mg/kg): 1.04 (h · ng/mL)/(mg/kg); Tmax (male, po, 12 mg/kg): 30 min; half-life (male, po, 12 mg/kg): 18.8 min; AUC(0-t) (male, po, 12 mg/kg, AUC(0-6)): 13 ± 2.23 ng·h/mL; AUC(0-t) (male, po, 12 mg/kg, AUC(0-t)): 12.5 ± 2.02 ng·h/mL; concentration at 0 h (male, po, 12 mg/kg): 0 ng/mL; concentration at 5 min (male, po, 12 mg/kg): 1.35 ng/mL; concentration at 0.167 h (male, po, 12 mg/kg): 2.73 ng/mL; concentration at 0.333 h (male, po, 12 mg/kg): 5.8 ng/mL; concentration at 0.5 h (male, po, 12 mg/kg): 18.9 ng/mL; concentration at 1 h (male, po, 12 mg/kg): 5.65 ng/mL; concentration at 2 h (male, po, 12 mg/kg): 0.457 ng/mL; concentration at 3 h (male, po, 12 mg/kg): 0.036 ng/mL; concentration at 6 h (male, po, 12 mg/kg): 0.016 ng/mL; concentration at 24 h (male, po, 12 mg/kg): 0.021 ng/mL; AUC(0-6)/D (male, po, 24 mg/kg): 1.44 ± 0.714 hr*ng/mL/(mg/kg); AUC(0-inf) (male, po, 24 mg/kg): 34.6 ± 17.1 ng·h/mL; Cmax (male, po, 24 mg/kg): 38.3 ± 28.1 ng/mL; Cmax/D (male, po, 24 mg/kg): 1.60 ± 1.17 ng/mL/(mg/kg); Oral AUC/dose (male, po, 24 mg/kg): 1.44 (h · ng/mL)/(mg/kg); Tmax (male, po, 24 mg/kg): 60 min; half-life (male, po, 24 mg/kg): 47.1 min; AUC(0-t) (male, po, 24 mg/kg, AUC(0-6)): 34.5 ± 17.2 ng·h/mL; AUC(0-t) (male, po, 24 mg/kg, AUC(0-t)): 34.5 ± 17.1 ng·h/mL; concentration at 0 h (male, po, 24 mg/kg): 0 ng/mL; concentration at 5 min (male, po, 24 mg/kg): 4.69 ng/mL; concentration at 0.167 h (male, po, 24 mg/kg): 5.05 ng/mL; concentration at 0.333 h (male, po, 24 mg/kg): 23.9 ng/mL; concentration at 0.5 h (male, po, 24 mg/kg): 17.8 ng/mL; concentration at 1 h (male, po, 24 mg/kg): 26.9 ng/mL; concentration at 2 h (male, po, 24 mg/kg): 2.08 ng/mL; concentration at 3 h (male, po, 24 mg/kg): 0.611 ng/mL; concentration at 6 h (male, po, 24 mg/kg): 0.078 ng/mL; concentration at 24 h (male, po, 24 mg/kg): 0 ng/mL; AUC(0-6)/D (male, po, 48 mg/kg): 2.73 ± 0.590 hr*ng/mL/(mg/kg); AUC(0-inf) (male, po, 48 mg/kg): 133 ng·h/mL; Cmax/D (male, po, 48 mg/kg): 2.13 ± 0.628 ng/mL/(mg/kg); Oral AUC/dose (male, po, 48 mg/kg): 2.73 (h · ng/mL)/(mg/kg); Tmax (male, po, 48 mg/kg): 60 min; half-life (male, po, 48 mg/kg): 31.3 min; AUC(0-t) (male, po, 48 mg/kg, AUC(0-6)): 131 ± 28.3 ng·h/mL; AUC(0-t) (male, po, 48 mg/kg, AUC(0-t)): 131 ± 28.3 ng·h/mL; concentration at 0 h (male, po, 48 mg/kg): 0 ng/mL; concentration at 5 min (male, po, 48 mg/kg): 14.3 ng/mL; concentration at 0.167 h (male, po, 48 mg/kg): 35.7 ng/mL; concentration at 0.333 h (male, po, 48 mg/kg): 14.3 ng/mL; concentration at 0.5 h (male, po, 48 mg/kg): 33.7 ng/mL; concentration at 1 h (male, po, 48 mg/kg): 80.2 ng/mL; concentration at 2 h (male, po, 48 mg/kg): 21.7 ng/mL; concentration at 3 h (male, po, 48 mg/kg): 3 ng/mL; concentration at 6 h (male, po, 48 mg/kg): 0.238 ng/mL; concentration at 24 h (male, po, 48 mg/kg): 0 ng/mL
